# From PubChem BioAssay (NCI)
# Values joined by “and” are separate entries in the source; they are usually repeats but may differ in a detail not shown here. Equal entries are not always repeated.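 48-hour exposure; five concentrations; linearly interpolated endpoints. GI50: concentration for 50% inhibition of growth. TGI: total growth inhibition.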
# Assays:
# Test in all cases: NCI-60 cell line screen, 48 h
# SK-MEL-28 melanoma = tested on: SK-MEL-28 melanoma
# SW-620 colon = tested on: SW-620 colon
# UACC-257 melanoma = tested on: UACC-257 melanoma
# A549 NSCLC = tested on: A549 NSCLC
# U251 CNS = tested on: U251 CNS
# K-562 leukemia = tested on: K-562 leukemia
# UACC-62 melanoma = tested on: UACC-62 melanoma
# IGROV1 ovarian = tested on: IGROV1 ovarian
# NCI-H23 lung = tested on: NCI-H23 lung
# EKVX NSCLC = tested on: EKVX NSCLC
Structure (SMILES),GI50 (SK-MEL-28 melanoma),TGI (SK-MEL-28 melanoma),GI50 (SW-620 colon),TGI (SW-620 colon),GI50 (UACC-257 melanoma),TGI (UACC-257 melanoma),GI50 (A549 NSCLC),TGI (A549 NSCLC),GI50 (U251 CNS),TGI (U251 CNS),GI50 (K-562 leukemia),TGI (K-562 leukemia),GI50 (UACC-62 melanoma),TGI (UACC-62 melanoma),GI50 (IGROV1 ovarian),TGI (IGROV1 ovarian),GI50 (NCI-H23 lung),TGI (NCI-H23 lung),GI50 (EKVX NSCLC),TGI (EKVX NSCLC)
CCC[CH2][Sn]1([CH2]CCC)[O]C(c2ccccn2)S(=O)(=O)[O]1 (centres undefined),1.94 µM,3.76 µM,1.56 µM,3.02 µM,1.79 µM,3.29 µM,20 µM,34.3 µM,2.96 µM,11.8 µM,2.14 µM,6.72 µM,1.84 µM,3.78 µM,6.47 µM,20.3 µM,1.72 µM,3.5 µM,2.29 µM,5.61 µM
O=C1C(=O)c2cc([N+](=O)[O-])ccc2-c2ccccc21,1.73 µM,3.11 µM,1.54 µM,2.98 µM,1.7 µM,3.13 µM,1.9 µM,3.56 µM,1.35 µM,2.7 µM,,,1.7 µM,3.13 µM,1.9 µM,3.54 µM,1.65 µM,3.29 µM,1.62 µM,3.16 µM
CNC(=O)c1ccc(Nc2ncc(C(F)(F)F)c(NCc3nccnc3N(C)S(C)(=O)=O)n2)cc1,3.96 µM and 2.88 µM and 2.64 µM,> 10 µM and 9.49 µM and 9.43 µM,2.82 µM and 3.21 µM and 2.74 µM,> 10 µM and 9.82 µM and 11.7 µM,4.66 µM and 3.75 µM,> 10 µM and 11.2 µM and 15.5 µM,2.79 µM and 2.94 µM and 3.13 µM,> 10 µM and 8.79 µM and 12.1 µM,3.29 µM and 3.18 µM and 2.88 µM,> 10 µM and 12 µM and 13.6 µM,4.84 µM and 3.2 µM and 3.42 µM,> 10 µM and 17.7 µM and > 61.1 µM,1.76 µM and 1.66 µM and 1.63 µM,> 10 µM and 4.37 µM and 4.24 µM,0.881 µM and 1.81 µM and 1.64 µM,> 10 µM and 12 µM and 13.1 µM,2.61 µM and 2.38 µM and 2.81 µM,8.64 µM and 7 µM,2.49 µM and 2.64 µM,> 10 µM and 10.8 µM
OCCN1CCN(CCO)Cc2ccccc2OCCOc2ccccc2C1,,> 100 µM,,> 100 µM,,> 100 µM,,> 100 µM,,> 100 µM,,> 100 µM,,,,> 100 µM,,> 100 µM,,> 100 µM
COc1ccc(C(=O)/C=C/c2cc3ccccc3[nH]c2=O)cc1,33.9 µM,> 67.4 µM,18.4 µM,33.2 µM,25.5 µM,> 56.5 µM,20 µM,> 100 µM,17.5 µM,43 µM,> 57.6 µM,> 100 µM,24.4 µM,> 57.8 µM,28.6 µM,97.6 µM,19.7 µM,> 53 µM,22.6 µM,> 94.3 µM
CC1=CC(=O)C(C)(C2=NC(C)(C)CO2)c2ccccc21 (centres undefined),,> 100 µM,,> 100 µM,,> 100 µM,,> 100 µM,,> 100 µM,,> 100 µM,,> 100 µM,,> 100 µM,,> 100 µM,,> 100 µM
CCN1C(C)=NC2C(=O)c3ccccc3C(=O)C21 (centres undefined),,> 100 µM,,> 100 µM,,> 100 µM,,> 100 µM,,> 100 µM,,> 100 µM,,> 100 µM,,> 100 µM,,> 100 µM,,
CC[C@H](C)c1occ2c(O)c(C(=O)O)c(=O)cc-2c1C,,,,44.5 µM,,> 100 µM,,> 100 µM,,74.6 µM,,> 100 µM,,37.4 µM,,37.2 µM,,43.1 µM,,> 100 µM
CCCCCCN(CCCCCC)C(=N)c1ccnc2ccccc12,3.13 µM,8.6 µM,3.27 µM,17.8 µM,2.37 µM,5.62 µM,11.9 µM,25.9 µM,3.31 µM,10.9 µM,2.37 µM,8.35 µM,4.88 µM,19.6 µM,2.83 µM,13.4 µM,6.9 µM,23.4 µM,8.58 µM,22.9 µM
COc1ccc(C(=S)c2cc(OC)c(OC)c(OC)c2)cc1OC(=O)CCl,,,< 0.0146 µM,> 100 µM,> 100 µM,> 100 µM,0.0849 µM,> 100 µM,0.0341 µM,> 100 µM,< 0.01 µM,> 100 µM,0.0391 µM,> 100 µM,0.0499 µM,> 100 µM,0.051 µM,> 100 µM,0.652 µM,> 100 µM
Cc1cc(NC(=O)c2ccc(NS(=O)(=O)CCO)cc2N2CCC3(CC2)CC3)nc(N2CCC(F)(F)CC2)n1,16.8 µM,30.7 µM,13.1 µM,27.1 µM,16.8 µM,32 µM,14.2 µM,30.4 µM,1.5 µM,22.7 µM,3.59 µM,> 51.4 µM,12.3 µM,24.9 µM,16 µM,30.6 µM,12.6 µM,26.6 µM,14.2 µM,28.8 µM
CC1(C)CC23C(=O)N(c4ccccc4)C(=Nc4ccccc4)NC2=CC(C#N)=C(C#N)C3O1 (centres undefined),,> 100 µM,,> 100 µM,,> 100 µM,,> 100 µM,,> 100 µM,,> 100 µM,,> 100 µM,,> 100 µM,,> 100 µM,,> 100 µM
COc1cccc(/C=C(/C(=O)O)c2cc(OC)c(OC)c(OC)c2)c1,,> 100 µM,,> 100 µM,,> 100 µM,,> 100 µM,,> 100 µM,,> 100 µM,,> 100 µM,,> 100 µM,,,,> 100 µM
CC(C#N)c1cn(S(=O)(=O)c2ccccc2)c2ccccc12 (centres undefined),,> 100 µM,,> 100 µM,,> 100 µM,,> 100 µM,,> 100 µM,,> 100 µM,,> 100 µM,,> 100 µM,,> 100 µM,,
CC(=O)[CH-]C(=O)c1ccccc1.CC(=O)[CH-]C(=O)c1ccccc1.O=C([O-])C[O-].O=C([O-])C[O-].[Ti+4],68.1 µM,> 100 µM,53.8 µM,> 100 µM,43.1 µM,> 100 µM,18.2 µM,> 100 µM,32 µM,> 100 µM,71.4 µM,> 100 µM,> 100 µM,> 100 µM,> 100 µM,> 100 µM,,,96.7 µM,> 100 µM
